Test results as given in patent US4252798A, “Reversible male contraception” (The Upjohn Company, priority 1980, dated 1981).

Legend:
[1] = tested on: healthy male mammal post-puberty (man); experiment: Male contraception by oral administration to man; format: in vivo
Description: A 60 kg. Person who is the admitted parent of 2 children is given one 50 mg. tablet daily of 17β-methoxy-2α-methyl-5α-androstan-3-one.
A 60 kg. Person is treated daily with one teaspoonful of a suspension of 2α,3α-epithio-17β-ethoxy-5α-androstane (100 mg./ml.).

[2] = tested on: rat ABP (androgen binding protein) and rat AR (androgen receptor); experiment: ABP/AR ratio: relative affinity (vs DHT) for rat ABP and rat AR; details: ratio of relative affinity for rat ABP to relative affinity for rat AR, each compared to DHT
Source text: The present invention includes steroids which have a high affinity for rat ABP (androgen binding protein) as compared to DHT (dihydrotestosterone, 17β-hydroxy-5α-androst-3-one). N. A. Musto et al. in Endo. Res. Comm. 4, 147 (1977) have described a procedure for isolation and purification of rat ABP. Utilizing the purified rat ABP, and following the procedure of E. M. Ritzen et al. described in J. Biol. Chem. 249, 6597 (1974), the relative affinity of various non-estrogenic-type steroids can readily be determined. The dissociation constant (Kd) measures the affinity of a compound for a protein. The dissociation constant for DHT and the non-estrogenic-type steroids is determined. […]
E. M. Wilson and F. S. French in the J. Biol. Chem. 251, 5620 (1976) have described a procedure for isolation and partial purification of rat AR. Utilizing the rat AR and following the procedure of G. Verhoeven et al. described in Steroids 26, 149 (1975) the relative affinity of various steroids can readily be determined. The dissociation constant for DHT and non-estrogenic steroids is determined. […] D. J. Tindall, et al., in the International Journal of Andrology, Supplement 2 (1978) set forth the preferred method for determining the relative affinities of a steroid for ABP and AR from which the ABP/AR ratio can be calculated. […]

tom = experiment: Male contraception by daily treat given to tom; format: in vivo, tom (cat)
Description: A 6 kg. tom who has previously sired offspring is given a treat daily containing 20 mg. of 17β-methoxy-2α-methyl-5α-androstan-3-one. […] Eighty days following cessation of administration of the treat, the tom, upon sexual intercourse, fertilizes the same ovulating female at the time of her estrus.

men = details: cited from earlier work
normal men = details: six normal men; Morse et al., J. Clin. Endocrinol. Metab. 37, 882 (1973); cited from earlier work

CCO[C@H]1CC[C@H]2[C@@H]3CC[C@H]4C[C@@H]5S[C@@H]5C[C@]4(C)[C@H]3CC[C@]12C [2α,3α-epithio-17β-ethoxy-5α-androstane]
fertilization of a fertile female following sexual intercourse ([1]; Example 5: 60 one teaspoonful daily of suspension (100 mg./ml.), after 60 days): does not fertilize
fertility on further administration ([1]; Example 5: further administration): remains infertile

CO[C@H]1CC[C@H]2[C@@H]3CC[C@H]4C[C@@H]5S[C@@H]5C[C@]4(C)[C@H]3CC[C@]12C [2α,3α-epithio-17β-methoxy-5α-androstane]
fertilization of a fertile female following sexual intercourse ([1]; Example 3: 70 one-half teaspoonful/day of elixir (100 mg./ml.), after 60 days): does not fertilize
fertility on continued administration ([1]; Example 3: continued daily elixir): remains infertile

C[C@@H]1C[C@@]2(C)C(=CC1=O)C[C@@H](C)[C@H]1[C@@H]3CC[C@H](O)[C@@]3(C)CC[C@@H]12 [2α,7α-dimethyltestosterone]
ABP/AR ratio [2]: about 6.0

CO[C@H]1CC[C@H]2[C@@H]3CC[C@H]4CC(=O)[C@H](C)C[C@]4(C)[C@H]3CC[C@]12C [17β-methoxy-2α-methyl-5α-androstan-3-one]
fertilization of an ovulating female at estrus following sexual intercourse (tom; Example 6: 6 kg tom, treat with 20 mg daily, after 60 days): does not fertilize
fertility on continuous daily administration (tom; Example 6: continued daily treat): remains infertile
fertilization of the same ovulating female after cessation (reversibility) (tom; Example 6: eighty days following cessation of the treat): fertilizes
fertilization of a fertile female following sexual intercourse ([1]; Example 1: 70 10 mg tablet twice daily for about 100 days): does not fertilize
fertility on continued administration ([1]; Example 1: continued twice daily): remains infertile
fertilization of a fertile female following sexual intercourse ([1]; Example 2: 80 200 mg capsule four times daily for 60 days): does not fertilize
fertility on continued administration ([1]; Example 2: continued 4 times daily): remains infertile
fertility on continued administration ([1]; Example 4: continued daily): remains infertile

CCCCCCC(=O)O[C@H]1CC[C@H]2[C@@H]3CCC4=CC(=O)CC[C@]4(C)[C@H]3CC[C@]12C [testosterone enanthate]
effect on sperm in men who acknowledged paternity (men; Steinberger et al., Fertility and Sterility 27, 216 (1976)): azoospermia
sperm count (men; seven men, Mauss et al., Acta. Endocrinol. 78, 373 (1975)): less than 3,000,000 sperm/ml

CCC(=O)O[C@H]1CC[C@H]2[C@@H]3CCC4=CC(=O)CC[C@]4(C)[C@H]3CC[C@]12C [testosterone propionate]
sperm concentration (normal men): sharp drop
testicular testosterone (normal men): decrease
